# Like-named read-outs stand apart in the source and are kept apart here.
# How the values were obtained:
# ATM = ATM (Homo sapiens (Human), UniProt Q13315); assay: ATM biochemical assay (Reaction Biology HTRF kinase assay, 10 μM ATP)
# Method: Ataxia-Telangiectasia Mutated (ATM) Biochemical Assay Using Reaction Biology's HTRF Kinase Assay Protocol:
# The assay detects kinase activity by antibody based HTRF assay. The GST-tagged p53 protein serves as substrate and Eu-labeled-antibody with specific phosphorylation site binds upon phosphorylation which is monitored by HTRF from the anti-GST-d2.
# Reagent: Reaction buffer; 50 mM Hepes (pH 7.5), 150 mM NaCl, 10 mM MnCl2, 1% Glycerol, 0.01% Brij35, 1 mM DTT, 1% DMSO.
# Substrate: Human p53 (aa2-393), RBC produced in E. coli, N-terminal GST-Tag, MW=70.42 kDa.
# Detection; MAb Anti-p53-pS15-Eu cryptate, CisBio cat #61P08KAZ; MAb Anti GST-d2
# Reaction Procedure: 1. Deliver 2× Enzyme in wells of reaction plate except No E control wells. Add buffer instead; 2. Deliver compounds in 100% DMSO into the kinase reaction mixture by Acoustic technology (Echo550; nanoliter range), incubate for 30 min at room temperature; 3. Deliver 2× substrate+ATP mixture into the reaction mixture to initiate the reaction; 4. Incubate for 2 hours at room temperature.
# HTRF Detection: 1. Deliver 2× Stop/Detection mixture and incubate for 2 hours to overnight in the dark. 2. HTRF measurement (Ex/Em1/Em2=320/615/665 nm) in EnVision.
# [1] = target: PI3Kδ (His-PIK3CD/PIK3R1, p110 delta/p85 alpha) (Homo sapiens (Human), UniProt O00329); assay: PI3Kδ biochemical assay (HTRF/FRET probe); format: binding; settings: class symbol
# Method: Phosphoinositide 3-kinase (PI3K) Biochemical Assay: A solution was prepared containing 0.2 nM Anti-HIS-Terbium (Cisbio, 64CUSTAZU), 40 nM designed-probe and 1.0 nM His-PIK3CD/PIK3R1 (p110 delta/p85 alpha) in FRET Buffer (20 mM HEPES, 10 mM MgCl2, 0.015% Brij-35, 4 mM DTT, 0.05 mg/mL BSA).
# [2] = target: PI3Kα (His-PIK3CA/PIK3R1, p110 alpha/p85 alpha) (Homo sapiens (Human), UniProt P42336); assay: PI3Kα biochemical assay (HTRF/FRET probe); format: binding; settings: class symbol
# Method: Phosphoinositide 3-kinase α (PI3Kα) Biochemical Assay: A solution was prepared containing 0.2 nM Anti-HIS-Terbium (Cisbio, 64CUSTAZU), 3.7 nM designed-probe and 1.0 nM His-PIK3CA/PIK3R1 (p110 alpha/p85 alpha) in FRET Buffer (20 mM HEPES, 10 mM MgCl2, 0.015% Brij-35, 4 mM DTT, 0.05 mg/mL BSA).
# DNA-PK = DNA-PK (Homo sapiens (Human), UniProt P78527); assay: DNA-PK biochemical assay (Reaction Biology HotSpot kinase assay, 10 μM ATP)
# Method: DNA-PK Biochemical Assay Using Reaction Biology's HotSpot Kinase Assay Protocol:
# Reagent: Base Reaction buffer; 20 mM Hepes (pH 7.5), 10 mM MgCl2, 1 mM EGTA, 0.01% Brij35, 0.02 mg/ml BSA, 0.1 mM Na3VO4, 2 mM DTT, 1% DMSO Required cofactors are added individually to each kinase reaction.
# Reaction Procedure: 1. Prepare substrate in freshly prepared Reaction Buffer; 2. Deliver any required cofactors to the substrate solution above; 3. Deliver kinase into the substrate solution and gently mix; 4. Deliver compounds in 100% DMSO into the kinase reaction mixture by Acoustic technology (Echo550; nanoliter range), incubate for 20 min at room temperature; 5. Deliver 33P-ATP into the reaction mixture to initiate the reaction; 6. Incubate for 2 hours at room temperature; 7. Detect kinase activity by P81 filter-binding method.
# [3] = read-out: DNA-PK HotSpot 10 μM ATP IC50, class symbol
# [4] = read-out: ATM HTRF 10 μM ATP IC50, class symbol
# ATM, sequence (Q13315 whole entry): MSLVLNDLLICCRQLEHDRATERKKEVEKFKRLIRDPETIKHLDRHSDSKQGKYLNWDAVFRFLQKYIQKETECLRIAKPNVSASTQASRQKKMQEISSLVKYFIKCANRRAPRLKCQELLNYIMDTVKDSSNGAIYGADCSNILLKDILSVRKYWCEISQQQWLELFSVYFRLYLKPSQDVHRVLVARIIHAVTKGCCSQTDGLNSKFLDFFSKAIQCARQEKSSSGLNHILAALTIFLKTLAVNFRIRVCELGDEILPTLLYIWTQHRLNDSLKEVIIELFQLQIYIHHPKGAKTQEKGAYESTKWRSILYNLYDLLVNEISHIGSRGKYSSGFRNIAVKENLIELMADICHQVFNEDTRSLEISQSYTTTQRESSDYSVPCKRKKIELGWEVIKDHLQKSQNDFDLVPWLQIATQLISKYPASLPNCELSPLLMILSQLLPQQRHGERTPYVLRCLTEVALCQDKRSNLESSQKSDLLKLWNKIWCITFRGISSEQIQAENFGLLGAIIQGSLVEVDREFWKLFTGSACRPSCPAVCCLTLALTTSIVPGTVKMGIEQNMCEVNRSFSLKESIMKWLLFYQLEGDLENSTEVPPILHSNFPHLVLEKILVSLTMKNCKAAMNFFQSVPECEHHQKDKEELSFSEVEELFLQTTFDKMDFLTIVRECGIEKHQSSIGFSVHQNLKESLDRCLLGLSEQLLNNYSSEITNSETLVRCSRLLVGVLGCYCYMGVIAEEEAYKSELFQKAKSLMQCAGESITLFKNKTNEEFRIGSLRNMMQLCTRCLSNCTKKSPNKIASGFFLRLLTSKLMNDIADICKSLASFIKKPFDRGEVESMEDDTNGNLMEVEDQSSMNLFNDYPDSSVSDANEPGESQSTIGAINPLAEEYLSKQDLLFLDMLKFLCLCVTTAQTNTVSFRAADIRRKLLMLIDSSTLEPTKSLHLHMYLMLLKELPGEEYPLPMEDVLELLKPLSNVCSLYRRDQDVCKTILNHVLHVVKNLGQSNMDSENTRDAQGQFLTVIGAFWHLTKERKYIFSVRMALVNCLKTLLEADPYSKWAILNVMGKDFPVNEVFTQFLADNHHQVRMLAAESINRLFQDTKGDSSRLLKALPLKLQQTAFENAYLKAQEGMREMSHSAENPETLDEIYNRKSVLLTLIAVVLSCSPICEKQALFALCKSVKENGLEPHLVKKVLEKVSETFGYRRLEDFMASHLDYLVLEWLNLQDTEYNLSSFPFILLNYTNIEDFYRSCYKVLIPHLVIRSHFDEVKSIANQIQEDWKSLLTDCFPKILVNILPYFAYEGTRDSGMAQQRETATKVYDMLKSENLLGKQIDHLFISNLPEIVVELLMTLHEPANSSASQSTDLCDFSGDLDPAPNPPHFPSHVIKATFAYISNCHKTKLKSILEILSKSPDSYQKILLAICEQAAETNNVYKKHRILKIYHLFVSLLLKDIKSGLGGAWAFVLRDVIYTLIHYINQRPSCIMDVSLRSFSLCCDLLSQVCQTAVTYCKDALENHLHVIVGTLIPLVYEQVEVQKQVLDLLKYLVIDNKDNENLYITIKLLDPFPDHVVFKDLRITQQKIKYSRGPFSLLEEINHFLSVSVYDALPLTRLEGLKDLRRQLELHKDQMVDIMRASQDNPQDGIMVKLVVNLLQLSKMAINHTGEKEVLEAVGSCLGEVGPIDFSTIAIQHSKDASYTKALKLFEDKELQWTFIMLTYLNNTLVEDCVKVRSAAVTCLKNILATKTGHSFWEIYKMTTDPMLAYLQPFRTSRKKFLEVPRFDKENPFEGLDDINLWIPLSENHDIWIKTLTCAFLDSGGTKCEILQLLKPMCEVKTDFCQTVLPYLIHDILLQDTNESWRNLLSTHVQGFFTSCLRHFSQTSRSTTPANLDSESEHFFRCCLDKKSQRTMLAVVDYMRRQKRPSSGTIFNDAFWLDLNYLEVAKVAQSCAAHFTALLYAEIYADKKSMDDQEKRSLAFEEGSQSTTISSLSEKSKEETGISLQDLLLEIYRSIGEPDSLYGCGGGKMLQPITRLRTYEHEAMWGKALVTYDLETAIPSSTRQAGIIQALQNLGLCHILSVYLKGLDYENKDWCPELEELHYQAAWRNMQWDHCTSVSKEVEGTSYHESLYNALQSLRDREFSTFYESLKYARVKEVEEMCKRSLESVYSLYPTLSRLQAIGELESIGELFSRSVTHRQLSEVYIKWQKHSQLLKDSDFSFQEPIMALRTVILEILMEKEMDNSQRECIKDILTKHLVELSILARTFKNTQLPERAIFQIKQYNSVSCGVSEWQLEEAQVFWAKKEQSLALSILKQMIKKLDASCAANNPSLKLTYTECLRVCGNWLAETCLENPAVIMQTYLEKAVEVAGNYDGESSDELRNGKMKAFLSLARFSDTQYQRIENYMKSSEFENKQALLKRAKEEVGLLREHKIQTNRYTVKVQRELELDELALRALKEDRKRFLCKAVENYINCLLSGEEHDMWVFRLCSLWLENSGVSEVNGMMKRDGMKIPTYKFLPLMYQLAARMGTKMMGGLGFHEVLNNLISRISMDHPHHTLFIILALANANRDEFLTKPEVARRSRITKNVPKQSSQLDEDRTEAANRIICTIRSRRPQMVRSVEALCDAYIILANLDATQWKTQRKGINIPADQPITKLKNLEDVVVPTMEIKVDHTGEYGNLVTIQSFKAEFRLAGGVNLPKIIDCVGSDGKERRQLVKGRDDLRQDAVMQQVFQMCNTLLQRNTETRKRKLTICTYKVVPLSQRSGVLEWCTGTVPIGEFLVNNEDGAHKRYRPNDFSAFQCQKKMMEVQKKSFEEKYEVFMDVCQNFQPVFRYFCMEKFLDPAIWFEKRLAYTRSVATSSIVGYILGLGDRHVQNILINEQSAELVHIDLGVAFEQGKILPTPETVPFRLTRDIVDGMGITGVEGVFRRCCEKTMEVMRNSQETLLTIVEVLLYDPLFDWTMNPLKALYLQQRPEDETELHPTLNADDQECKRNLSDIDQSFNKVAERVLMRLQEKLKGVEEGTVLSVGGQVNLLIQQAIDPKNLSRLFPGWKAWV
# PI3Kδ (His-PIK3CD/PIK3R1, p110 delta/p85 alpha), sequence (O00329 whole entry, species assumed): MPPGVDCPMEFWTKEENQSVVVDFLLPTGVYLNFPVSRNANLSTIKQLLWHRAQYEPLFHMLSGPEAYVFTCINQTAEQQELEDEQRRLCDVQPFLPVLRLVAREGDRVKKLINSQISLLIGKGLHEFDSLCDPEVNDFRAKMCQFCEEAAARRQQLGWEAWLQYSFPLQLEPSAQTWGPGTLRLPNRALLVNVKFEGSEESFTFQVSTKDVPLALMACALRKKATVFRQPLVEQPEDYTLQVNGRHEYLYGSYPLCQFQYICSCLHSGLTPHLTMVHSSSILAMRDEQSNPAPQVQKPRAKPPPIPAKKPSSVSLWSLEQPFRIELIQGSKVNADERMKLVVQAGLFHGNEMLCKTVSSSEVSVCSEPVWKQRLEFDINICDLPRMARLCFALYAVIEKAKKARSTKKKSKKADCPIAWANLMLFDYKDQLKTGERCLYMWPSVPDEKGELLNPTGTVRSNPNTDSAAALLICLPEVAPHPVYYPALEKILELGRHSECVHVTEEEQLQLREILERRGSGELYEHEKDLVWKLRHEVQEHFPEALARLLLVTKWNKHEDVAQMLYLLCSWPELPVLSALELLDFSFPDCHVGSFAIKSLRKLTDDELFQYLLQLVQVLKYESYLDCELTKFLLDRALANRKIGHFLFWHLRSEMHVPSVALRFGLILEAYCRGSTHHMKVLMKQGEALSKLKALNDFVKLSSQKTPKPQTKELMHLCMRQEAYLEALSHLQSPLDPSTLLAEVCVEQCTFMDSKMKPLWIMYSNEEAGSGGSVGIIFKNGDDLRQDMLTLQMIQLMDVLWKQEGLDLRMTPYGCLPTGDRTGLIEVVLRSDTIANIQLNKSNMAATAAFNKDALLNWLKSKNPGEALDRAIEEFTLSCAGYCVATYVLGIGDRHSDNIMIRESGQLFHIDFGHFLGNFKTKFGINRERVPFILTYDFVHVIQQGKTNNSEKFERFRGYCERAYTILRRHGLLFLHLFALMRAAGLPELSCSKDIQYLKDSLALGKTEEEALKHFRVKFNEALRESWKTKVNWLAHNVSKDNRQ
# PI3Kδ (His-PIK3CD/PIK3R1, p110 delta/p85 alpha), sequence (P27986 whole entry partner, species assumed): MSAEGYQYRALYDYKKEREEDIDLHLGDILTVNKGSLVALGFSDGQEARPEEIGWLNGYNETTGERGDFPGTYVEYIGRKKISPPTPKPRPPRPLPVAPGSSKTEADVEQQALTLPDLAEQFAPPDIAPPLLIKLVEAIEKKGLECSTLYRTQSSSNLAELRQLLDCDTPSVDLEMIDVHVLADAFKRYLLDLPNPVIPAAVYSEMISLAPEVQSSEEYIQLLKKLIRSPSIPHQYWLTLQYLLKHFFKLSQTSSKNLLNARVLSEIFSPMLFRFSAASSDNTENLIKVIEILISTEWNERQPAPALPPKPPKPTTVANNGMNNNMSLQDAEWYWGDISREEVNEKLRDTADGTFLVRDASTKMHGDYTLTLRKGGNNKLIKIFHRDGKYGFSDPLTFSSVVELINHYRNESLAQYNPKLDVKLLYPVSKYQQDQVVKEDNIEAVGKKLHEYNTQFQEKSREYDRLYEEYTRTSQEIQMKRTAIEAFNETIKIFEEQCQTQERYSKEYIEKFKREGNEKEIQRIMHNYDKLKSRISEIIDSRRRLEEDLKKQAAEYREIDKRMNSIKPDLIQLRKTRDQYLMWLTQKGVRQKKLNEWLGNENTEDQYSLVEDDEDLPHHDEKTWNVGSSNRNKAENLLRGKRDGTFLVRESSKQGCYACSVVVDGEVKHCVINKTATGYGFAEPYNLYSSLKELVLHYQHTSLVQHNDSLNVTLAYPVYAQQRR
Structure (SMILES),IC50 (ATM; class symbol),IC50 [1],IC50 [2],IC50 (DNA-PK; [3]),IC50 (ATM; [4]),IC50 (DNA-PK; class symbol)
"Cc1cc2c(cc1Nc1ncc3c(n1)n(C14CCC(O)(CC1)CC4)c(=O)n3C)OCO2 [Compound 27, 9-(4-hydroxybicyclo[2.2.2]octan-1-yl)-7-methyl-2-((6-methylbenzo[d][1,3]dioxol-5-yl)amino)-7,9-dihydro-8H-purin-8-one]",10 to 100 nM,≥ 1000 nM,10 to 100 nM,< 1 nM,–,–
"Cc1cc2nsnc2cc1Nc1ncc2c(n1)N(C13CC(F)(C1)C3)C(=O)C21CC1 [Compound 73, 7′-(3-fluorobicyclo[1.1.1]pentan-1-yl)-2′-((6-methylbenzo[c][1,2,5]thiadiazol-5-yl)amino)spiro[cyclopropane-1,5′-pyrrolo[2,3-d]pyrimidin]-6′(7′H)-one]",–,≥ 1000 nM,100 to 1000 nM,< 1 nM,≥ 1000 nM,–
"Cc1cc2c(cc1Nc1ncc3c(n1)n(C14CCC(C#N)(CC1)CC4)c(=O)n3C)OCO2 [Compound 24, 4-(7-methyl-2-((6-methylbenzo[d][1,3]dioxol-5-yl)amino)-8-oxo-7,8-dihydro-9H-purin-9-yl) bicyclo[2.2.2]octane-1-carbonitrile]",10 to 100 nM,≥ 1000 nM,100 to 1000 nM,< 1 nM,–,–
"[2H]C([2H])([2H])n1c(=O)n(C23CCC(O)(CC2)C3)c2nc(Nc3cn4ncnc4cc3C)ncc21 [Compound 77, 9-(4-hydroxybicyclo[2.2.1]heptan-1-yl)-7-(methyl-d3)-2-((7-methyl-[1,2,4]triazolo[1,5-a]pyridin-6-yl)amino)-7,9-dihydro-8H-purin-8-one]",10 to 100 nM,100 to 1000 nM,100 to 1000 nM,< 1 nM,–,–
"COC12CCC(n3c(=O)n(C)c4cnc(Nc5cc(F)c(-c6cnn(C)c6)cc5C)nc43)(C1)C2 [Compound 39, 2-((5-fluoro-2-methyl-4-(1-methyl-1H-pyrazol-4-yl)phenyl)amino)-9-(4-methoxybicyclo[2.1.1]hexan-1-yl)-7-methyl-7,9-dihydro-8H-purin-8-one]",10 to 100 nM,≥ 1000 nM,100 to 1000 nM,–,–,10 to 100 nM
"Cc1cc2c(cc1Nc1ncc3c(n1)n(C14CC(F)(C1)C4)c(=O)n3C)OCCO2 [Compound 16, 9-(3-fluorobicyclo[1.1.1]pentan-1-yl)-7-methyl-2-((7-methyl-2,3-dihydrobenzo[b][1,4]dioxin-6-yl)amino)-7,9-dihydro-8H-purin-8-one]",100 to 1000 nM,≥ 1000 nM,≥ 1000 nM,–,–,10 to 100 nM
"COC12CCC(n3c(=O)n(C)c4cnc(Nc5cc6nsnc6cc5C)nc43)(C1)C2 [Compound 30, 9-(4-methoxybicyclo[2.1.1]hexan-1-yl)-7-methyl-2-((6-methylbenzo[c][1,2,5]thiadiazol-5-yl)amino)-7,9-dihydro-8H-purin-8-one]",100 to 1000 nM,≥ 1000 nM,100 to 1000 nM,< 1 nM,–,–
"Cc1cc2nccnc2cc1Nc1ncc2c(n1)N(C13CC(F)(C1)C3)C(=O)C21CC1 [Compound 72, 7′-(3-fluorobicyclo[1.1.1]pentan-1-yl)-2′-((7-methylquinoxalin-6-yl)amino)spiro[cyclopropane-1,5′-pyrrolo[2,3-d]pyrimidin]-6′(7′H)-one]",100 to 1000 nM,≥ 1000 nM,100 to 1000 nM,< 1 nM,–,–
"Cc1cc2nccnc2cc1Nc1ncc2c(n1)n(C13CCC(O)(CC1)C3)c(=O)n2C [Compound 4, 9-(4-hydroxybicyclo[2.2.1]heptan-1-yl)-7-methyl-2-((7-methylquinoxalin-6-yl)amino)-7,9-dihydro-8H-purin-8-one]",10 to 100 nM,100 to 1000 nM,100 to 1000 nM,< 1 nM,–,–
"Cc1cc2ncnn2cc1Nc1ncc2c(n1)n(C13CC(F)(C1)C3)c(=S)n2C [Compound 34, 9-(3-fluorobicyclo[1.1.1]pentan-1-yl)-7-methyl-2-((7-methyl-[1,2,4]triazolo[1,5-a]pyridin-6-yl)amino)-7,9-dihydro-8H-purine-8-thione]",–,100 to 1000 nM,≥ 1000 nM,–,≥ 1000 nM,10 to 100 nM
"Cc1cc2nsnc2cc1Nc1ncc2c(C)nn(C34CC(C3)C4)c2n1 [Compound 50, N-(1-(bicyclo[1.1.1]pentan-1-yl)-3-methyl-1H-pyrazolo[3,4-d]pyrimidin-6-yl)-6-methylbenzo[c][1,2,5]thiadiazol-5-amine]",10 to 100 nM,≥ 1000 nM,≥ 1000 nM,< 1 nM,–,–
"Cc1cc2c(cc1Nc1ncc3c(n1)n(C14CC(C#N)(C1)C4)c(=O)n3C)OCO2 [Compound 17, 3-(7-methyl-2-((6-methylbenzo[d][1,3]dioxol-5-yl)amino)-8-oxo-7,8-dihydro-9H-purin-9-yl) bicyclo[1.1.1]pentane-1-carbonitrile]",100 to 1000 nM,≥ 1000 nM,≥ 1000 nM,–,–,1 to 10 nM
"COC12CCC(n3c(=O)n(C)c4cnc(Nc5cn6ncnc6cc5C)nc43)(CC1)CC2 [Compound 25, 9-(4-methoxybicyclo[2.2.2]octan-1-yl)-7-methyl-2-((7-methyl-[1,2,4]triazolo[1,5-a]pyridin-6-yl)amino)-7,9-dihydro-8H-purin-8-one]",1 to 10 nM,100 to 1000 nM,100 to 1000 nM,< 1 nM,–,–
"Cc1cc2c(cc1Nc1ncc3c(n1)n(C14CC(F)(C1)C4)c(=S)n3C)OCO2 [Compound 35, 9-(3-fluorobicyclo[1.1.1]pentan-1-yl)-7-methyl-2-((6-methylbenzo[d][1,3]dioxol-5-yl)amino)-7,9-dihydro-8H-purine-8-thione]",–,≥ 1000 nM,≥ 1000 nM,–,≥ 1000 nM,100 to 1000 nM
"COC12CCC(n3c(=O)n(C)c4cnc(Nc5cc6c(cc5C)OCO6)nc43)(CC1)CC2 [Compound 26, 9-(4-methoxybicyclo[2.2.2]octan-1-yl)-7-methyl-2-((6-methylbenzo[d][1,3]dioxol-5-yl)amino)-7,9-dihydro-8H-purin-8-one]",10 to 100 nM,≥ 1000 nM,100 to 1000 nM,< 1 nM,–,–
"Cc1cc2ncccc2cc1Nc1ncc2c(n1)N(C13CC(F)(C1)C3)CC(=O)N2C [Compound 57, 8-(3-fluorobicyclo[1.1.1]pentan-1-yl)-5-methyl-2-((7-methylquinolin-6-yl)amino)-7,8-dihydropteridin-6(5H)-one]",10 to 100 nM,100 to 1000 nM,100 to 1000 nM,–,–,1 to 10 nM
"Cc1cc2c(cc1Nc1ncc3c(n1)N(C14CC(F)(C1)C4)CC(=O)N3C)OCO2 [Compound 56, 8-{3-Fluorobicyclo[1.1.1]pentan-1-yl}-5-methyl-2-[(6-methyl-2H-1,3-benzodioxol-5-yl)amino]-5,6,7,8-tetrahydropteridin-6-one]",–,≥ 1000 nM,≥ 1000 nM,–,≥ 1000 nM,10 to 100 nM
"COCC12CC(n3c(=O)n(C)c4cnc(Nc5cn6ncnc6cc5C)nc43)(C1)C2 [Compound 20, 9-(3-(methoxymethyl)bicyclo[1.1.1]pentan-1-yl)-7-methyl-2-((7-methyl-[1,2,4]triazolo[1,5-a]pyridin-6-yl)amino)-7,9-dihydro-8H-purin-8-one]",1 to 10 nM,≥ 1000 nM,100 to 1000 nM,–,–,1 to 10 nM
"Cc1cc2nccnc2cc1Nc1ncc2c(n1)N(C13CCC(O)(CC1)C3)CC(=O)N2C [Compound 59, 8-(4-hydroxybicyclo[2.2.1]heptan-1-yl)-5-methyl-2-((7-methylquinoxalin-6-yl)amino)-7,8-dihydropteridin-6(5H)-one]",10 to 100 nM,100 to 1000 nM,100 to 1000 nM,< 1 nM,–,–

# Reference: US20250263753A1, “BRIDGED CYCLE-BASED INHIBITORS OF DNA-DEPENDENT PROTEIN KINASE AND COMPOSITIONS AND APPLICATION IN GENE EDITING” (Juno Therapeutics, Inc., priority 2023, published 2025)
